# Reference: patent US4559362A, “Immunopotentiator” (Zaidan Hojin Biseibutsu Kagaku Kenkyu Kai, priority 1982, dated 1985)
# Read-outs that look alike come from different tables or passages of the source.
# Key:
# [1] = tested on: interleukine-2 production (Thymocytes); assay: Interleukine-2 production by spleen cells, activity of promoting the division of thymocytes; format: cell-based, CDF1 mice; conditions: for activity at 0.001 µg/mL / activity at 0.01 µg/mL / activity at 0.1 µg/mL / activity at 1 µg/mL: Mus musculus, Thymocyte, 24 h, control = 100, read-out: ^3 H-thymidine incorporation, Thymocytes; for activity at 0.001 µg/mL: 0.001 μg/ml; for activity at 0.01 µg/mL: 0.01 μg/ml; for activity at 0.1 µg/mL: 0.1 μg/ml; for activity at 1 µg/mL: 1 μg/ml
# Experimental: The effect of spermidine on the production of interleukine was investigated in accordance with the method of Larsson et al. (Larsson, E-L: Mechanism of T cell activation II. Antigen- and lectin-dependent acquisition of responsiveness to TCGF is a nonmitogenic, active response of resting T cells. J. Immunol. 126, 1323-1326, 1981).
# Spermidine in a varying concentration was added to 1×10^7 spleen cells/ml of CDF1 mice. In the presence or absence of added concanavalin A (2 μg/ml), the stimulant of interleukine-2 production, the cells were then cultured in a cell incubator kept at 37° C. and at a carbon dioxide concentration of 5% for 24 hours. After completion of the incubation, α-methylmannoside was added to the supernatant to inactivate concanavalin A. The supernatant was collected to examine its interleukine-2 activity. The interleukine-2 activity was determined by the activity of promoting the proliferation of T blast cells and the activity of promoting the division of thymocytes. The latter two activities were determined by measuring ^3 H-thymidine incorporations to both types of cells.
# mouse leukemia L-1210 = assay: Survival of CDF1 mice transplanted with mouse leukemia L-1210; format: in vivo; conditions: for Increase of life span: control = 100, mice surviving 60 days excluded
# Experimental: (§1) The pharmacological effects of spermidine will be illustrated by reference to the following experimental examples, in which spermidine was administered as its phosphate dissolved in physiological saline.
# (b) 1×10^2 mouse leukemia L-1210 cells were transplanted into CDF1 mice by subcutaneous injection (Day 0). From Day 1 onwards, 0.5 to 5 mg/kg of spermidine was administered in total of 10 times, once daily on alternative days, to investigate on the number of days the mice survived.
# [2] = tested on: suppressor cells against DTH; assay: Inhibition of the elevation of suppressor cells against DTH (spleen cell transfer), sole swelling; format: in vivo, CDF1 mice; conditions: transferred suppressor cells; for % suppression: untreated suppressor cells 53
# Experimental: as §1
# Experiments were conducted to transfer suppressor cells, in accordance with the method of Yamaguchi et al. (Yamaguchi, K. and Kishimoto, S.: Distinction between suppressors of the delayed-type hypersensitivity and the humoral response to sheep erythrocytes. Immunology. 35, 721-731, 1978). CDF1 mice (8 weeks old, female) were intravenously administered with 10^8 sheep erythrocytes, the amount enough to induce the elevation of suppressor cells against DTH. The objective was to promote the production of suppressor cells. Two days later, supermidine was intraperitoneally injected once daily, and this treatment was continued for 3 days. Five days later, spleen cells were collected from the mice, and 4.5×10^7 cells of them were transferred to normal syngenic mice by i.v. injection. Simultaneously, 10^5 sheep erythrocytes, the amount enough to obtain the optimal reaction, was i.v. injected for immunization.
# Four days later, 10^8 sheep erythrocytes were subcutaneously injected to the soles of the mice to induce the reaction. Twenty-four hours later, swellings on the soles were measured to evaluate the efficacy of spermidine.
# IMC cancer cells = assay: Growth inhibitory effect on cultured IMC cancer cells; format: cell-based; conditions: 48 hours, 37° C., read-out: concentration at which 50% of the original cells were inhibited from growth
# Experimental: A study was conducted on the growth inhibitory effect of spermidine on cultures of IMC cancer cells and L-1210 cells. IMC cancer cells were cultured in an RPMI 1640 medium containing 10% bovine fetus serum and 2-mercaptoethanol, and L-1210 cells in an MEM medium containing 10% calf serum, for 48 hours at 37° C. in 5% carbon dioxide. The number of cultured cells was counted with a Coulter counter to evaluate the degree of cell proliferation. Spermidine was added at the start of incubation.
# IMC carcinoma = assay: Antitumor effect on IMC carcinoma transplanted subcutaneously into CDF1 mice; format: in vivo; conditions: for Weight of tumor ± S.D.: 10 times on alternative days, day 30, in mg (unit assumed)
# Experimental: as §1
# (a) The antitumor effect of spermidine was investigated on IMC carcinoma successively transplanted into CDF1 mice and on S180 sarcoma transplanted into ICR mice. 1×10^6 tumor cells of each of the above type were transplanted subcutaneously into such mice (Day 0). From Day 1 onwards, spermidine was intraperitoneally injected a total of 10 times (once daily on alternative days). Thirty days after transplantation of tumor cells, the tumor was removed and weighed to evaluate the effect of spermidine.
# [3] = tested on: delayed-type hypersensitivity (DTH) to sheep erythrocytes; assay: Effect on delayed-type hypersensitivity (DTH) to sheep erythrocytes, sole swelling; format: in vivo, CDF1 mice
# Experimental: as §1
# In accordance with the method of Lagrange et al. (Lagrange, P. H., Mackaness, G. B., and Miller, T. E.: Influence of dose and route of antigen injection on the immunological induction of T cells. J. Exp. Med. 139, 528-542, 1974), the effect of spermidine on cellular immunity was investigated using as its index the degree of delayed-type hypersensitivity (DTH) to sheep erythrocytes as the antigen. CDF1 mice (8 weeks old, female) were intravenously injected with 10^5 or 10^8 sheep erythrocytes for immunization, and at the same time, were intraperitoneally injected with spermidine. Four days later, the soles of the mice were subcutaneously injected with 10^8 sheep erythrocytes to induce the DTH reaction. Twenty four hours later, swellings on the soles were measured with a caliper to evaluate the effect of spermidine.
# [4] = 5 mg/kg, 10 times on alternative days
structure (smiles),measurement,setting,value
"NCCCCNCCCN [Spermidine, spermidine]",optimal concentration (interleukin-2 production),[1],0.1 µg/mL
same,activity at 0.001 µg/mL,[1]; with Con A (2 μg/ml),126%
same,activity at 0.001 µg/mL,[1]; without Con A,171%
same,activity at 0.01 µg/mL,[1]; with Con A (2 μg/ml),130%
same,activity at 0.01 µg/mL,[1]; without Con A,255%
same,activity at 0.1 µg/mL,[1]; with Con A (2 μg/ml),149%
same,activity at 0.1 µg/mL,[1]; without Con A,281%
same,activity at 1 µg/mL,[1]; with Con A (2 μg/ml),135%
same,activity at 1 µg/mL,[1]; without Con A,90%
same,Survival rate on Day 60,mouse leukemia L-1210; 0.5 mg/kg,1/10
same,Survival period,"mouse leukemia L-1210; 0.5 mg/kg, 10 times on alternative days",16.0 ± 3.1 days
same,Increase of life span,mouse leukemia L-1210; 0.5 mg/kg,109%
same,Survival rate on Day 60,mouse leukemia L-1210; 5 mg/kg,3/10
same,Survival period,mouse leukemia L-1210; [4],15.2 ± 2.2 days
same,complete remission,mouse leukemia L-1210; [4],3 out of 10
same,Increase of life span,mouse leukemia L-1210; 5 mg/kg,104%
same,Swelling on the sole,[2]; 10 μg/mouse i.p. once daily for 3 days,8.0 ± 0.3 × 0.1 mm
same,% suppression,[2]; 10 μg/mouse,42%
same,Swelling on the sole,[2]; 100 μg/mouse i.p. once daily for 3 days,10.2 ± 0.4 × 0.1 mm
same,% suppression,[2]; 100 μg/mouse,26%
same,Swelling on the sole,[2]; 1000 μg/mouse i.p. once daily for 3 days,10.9 ± 0.8 × 0.1 mm
same,% suppression,[2]; 1000 μg/mouse,21%
same,IC50,IMC cancer cells,2.4 µg/mL
same,% inhibition (weight of tumor),IMC carcinoma; 0.05 mg/kg/day i.p.,26%
same,Weight of tumor ± S.D.,IMC carcinoma; 0.05 mg/kg/day i.p.,5112 ± 2263
same,% inhibition (weight of tumor),IMC carcinoma; 0.5 mg/kg/day i.p.,58%
same,Weight of tumor ± S.D.,IMC carcinoma; 0.5 mg/kg/day i.p.,2893 ± 964
same,% inhibition (weight of tumor),IMC carcinoma; 5 mg/kg/day i.p.,40%
same,Weight of tumor ± S.D.,IMC carcinoma; 5 mg/kg/day i.p.,4125 ± 1852
same,% inhibition (weight of tumor),IMC carcinoma; 50 mg/kg/day i.p.,44%
same,Weight of tumor ± S.D.,IMC carcinoma; 50 mg/kg/day i.p.,3886 ± 1351
same,effect on normal cellular immunity,[3]; 5 to 0.005 mg/kg,enhances normal cellular immunity
same,Swelling on the sole,"[3]; 10^5 sheep erythrocytes, 0.01 μg/mouse (0.0005) i.p.",5.8 ± 0.4 × 0.1 mm
same,% increase (swelling on the sole),"[3]; 10^5 sheep erythrocytes, 0.01 μg/mouse (0.0005) i.p., untreated 10^5 group = 100",91%
same,Swelling on the sole,"[3]; 10^5 sheep erythrocytes, 0.1 μg/mouse (0.005) i.p.",9.4 ± 0.7 × 0.1 mm
same,% increase (swelling on the sole),"[3]; 10^5 sheep erythrocytes, 0.1 μg/mouse (0.005) i.p., untreated 10^5 group = 100",147%
same,Swelling on the sole,"[3]; 10^5 sheep erythrocytes, 1 μg/mouse (0.05) i.p.",8.5 ± 0.7 × 0.1 mm
same,% increase (swelling on the sole),"[3]; 10^5 sheep erythrocytes, 1 μg/mouse (0.05) i.p., untreated 10^5 group = 100",133%
same,Swelling on the sole,"[3]; 10^5 sheep erythrocytes, 10 μg/mouse (0.5) i.p.",8.9 ± 0.7 × 0.1 mm
same,% increase (swelling on the sole),"[3]; 10^5 sheep erythrocytes, 10 μg/mouse (0.5) i.p., untreated 10^5 group = 100",139%
same,Swelling on the sole,"[3]; 10^5 sheep erythrocytes, 100 μg/mouse (5) i.p.",8.1 ± 1.1 × 0.1 mm
same,% increase (swelling on the sole),"[3]; 10^5 sheep erythrocytes, 100 μg/mouse (5) i.p., untreated 10^5 group = 100",126%
same,Swelling on the sole,"[3]; 10^5 sheep erythrocytes, 1000 μg/mouse (50) i.p.",7.1 ± 0.3 × 0.1 mm
same,% increase (swelling on the sole),"[3]; 10^5 sheep erythrocytes, 1000 μg/mouse (50) i.p., untreated 10^5 group = 100",111%
same,effect of enhancing cellular immunity,"[3]; 10^5 sheep erythrocytes, 0.01 or 1000 μg/mouse",no enhancing effect
same,effect of enhancing cellular immunity,"[3]; 10^5 sheep erythrocytes, 0.1 to 100 μg/mouse",significant effect of enhancing cellular immunity
same,Swelling on the sole,"[3]; 10^8 sheep erythrocytes, 0.01 μg/mouse (0.0005) i.p.",4.5 ± 0.2 × 0.1 mm
same,% increase (swelling on the sole),"[3]; 10^8 sheep erythrocytes, 0.01 μg/mouse (0.0005) i.p., untreated 10^5 group = 100, untreated 10^8 group = 48",70%
same,Swelling on the sole,"[3]; 10^8 sheep erythrocytes, 0.1 μg/mouse (0.005) i.p.",5.3 ± 0.3 × 0.1 mm
same,% increase (swelling on the sole),"[3]; 10^8 sheep erythrocytes, 0.1 μg/mouse (0.005) i.p., untreated 10^5 group = 100, untreated 10^8 group = 48",83%
same,Swelling on the sole,"[3]; 10^8 sheep erythrocytes, 1 μg/mouse (0.05) i.p.",6.3 ± 0.3 × 0.1 mm
same,% increase (swelling on the sole),"[3]; 10^8 sheep erythrocytes, 1 μg/mouse (0.05) i.p., untreated 10^5 group = 100, untreated 10^8 group = 48",98%
same,Swelling on the sole,"[3]; 10^8 sheep erythrocytes, 10 μg/mouse (0.5) i.p.",6.4 ± 0.06 × 0.1 mm
same,% increase (swelling on the sole),"[3]; 10^8 sheep erythrocytes, 10 μg/mouse (0.5) i.p., untreated 10^5 group = 100, untreated 10^8 group = 48",100%
same,Swelling on the sole,"[3]; 10^8 sheep erythrocytes, 100 μg/mouse (5.0) i.p.",6.4 ± 0.4 × 0.1 mm
same,% increase (swelling on the sole),"[3]; 10^8 sheep erythrocytes, 100 μg/mouse (5.0) i.p., untreated 10^5 group = 100, untreated 10^8 group = 48",100%
same,Swelling on the sole,"[3]; 10^8 sheep erythrocytes, 1000 μg/mouse (50) i.p.",7.4 ± 0.5 × 0.1 mm
same,% increase (swelling on the sole),"[3]; 10^8 sheep erythrocytes, 1000 μg/mouse (50) i.p., untreated 10^5 group = 100, untreated 10^8 group = 48",116%
same,effect of strengthening cellular immunity,"[3]; 10^8 sheep erythrocytes, 0.1 to 1000 μg/mouse, vs 10^8 control group",marked effect of strengthening cellular immunity
same,DTH reaction compared with group immunized with 10^5 erythrocytes,"[3]; 10^8 sheep erythrocytes, 10 to 1000 μg/mouse",comparable
same,effect on suppression of cellular immunity by suppressor cells,[3]; 50 to 0.5 mg/kg,inhibit the suppression of cellular immunity by suppressor cells
